Reference: US8455665B2, “3-phenoxymethylpyrrolidine compounds” (Theravance, Inc., priority 2009, dated 2013)
Marks after values point to notes of the source that are not given here.

Tests used:
NET = NET (Homo sapiens, UniProt P23975); assay: fluorescence-based norepinephrine uptake assay (Tsuruda et al. 2010); format: cell-based; details: norepinephrine reuptake inhibition, fluorescence-based assay (data indicated by an asterisk); for IC50: read-out: NET pIC50 (converted)
SERT = SERT (Homo sapiens, UniProt P31645); assay: fluorescence-based serotonin uptake assay (Tsuruda et al. 2010); format: cell-based; details: serotonin reuptake inhibition, fluorescence-based assay (data indicated by an asterisk); for IC50: read-out: SERT pIC50 (converted)
SERT, sequence (P31645 whole entry, species assumed): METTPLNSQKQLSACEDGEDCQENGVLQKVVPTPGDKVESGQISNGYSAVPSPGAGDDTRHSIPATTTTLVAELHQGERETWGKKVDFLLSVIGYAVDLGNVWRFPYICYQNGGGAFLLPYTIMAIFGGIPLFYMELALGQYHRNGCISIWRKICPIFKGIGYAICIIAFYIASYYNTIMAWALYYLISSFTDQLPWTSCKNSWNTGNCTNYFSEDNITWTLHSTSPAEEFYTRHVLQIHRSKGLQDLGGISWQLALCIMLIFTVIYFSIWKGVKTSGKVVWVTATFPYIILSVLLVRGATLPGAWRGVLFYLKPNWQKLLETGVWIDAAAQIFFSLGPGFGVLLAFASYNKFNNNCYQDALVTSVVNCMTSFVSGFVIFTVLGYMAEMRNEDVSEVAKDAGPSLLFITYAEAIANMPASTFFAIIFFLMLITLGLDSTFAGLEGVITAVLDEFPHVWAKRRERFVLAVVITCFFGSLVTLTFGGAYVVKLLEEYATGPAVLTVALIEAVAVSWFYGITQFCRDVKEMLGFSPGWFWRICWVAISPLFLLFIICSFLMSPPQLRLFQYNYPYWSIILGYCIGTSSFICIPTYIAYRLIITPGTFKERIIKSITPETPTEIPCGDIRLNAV

NET, sequence (P23975 whole entry): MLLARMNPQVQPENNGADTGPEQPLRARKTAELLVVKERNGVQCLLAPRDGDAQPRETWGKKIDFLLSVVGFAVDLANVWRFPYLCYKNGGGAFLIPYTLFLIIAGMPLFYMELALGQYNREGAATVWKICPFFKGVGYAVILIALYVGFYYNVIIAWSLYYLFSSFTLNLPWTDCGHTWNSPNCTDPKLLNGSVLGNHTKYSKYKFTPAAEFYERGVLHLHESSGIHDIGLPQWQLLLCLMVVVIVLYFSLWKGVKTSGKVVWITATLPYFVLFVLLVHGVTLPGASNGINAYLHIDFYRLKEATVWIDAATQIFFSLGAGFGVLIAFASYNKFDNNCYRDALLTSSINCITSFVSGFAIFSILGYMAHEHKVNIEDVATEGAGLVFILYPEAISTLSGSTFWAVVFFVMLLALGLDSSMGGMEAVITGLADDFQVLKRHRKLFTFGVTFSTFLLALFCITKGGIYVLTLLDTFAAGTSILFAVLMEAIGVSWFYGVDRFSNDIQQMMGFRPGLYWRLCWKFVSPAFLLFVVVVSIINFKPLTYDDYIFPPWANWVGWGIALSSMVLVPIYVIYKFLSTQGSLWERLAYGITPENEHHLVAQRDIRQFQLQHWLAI

Row | Structure (SMILES) | IC50 (NET) [nM] | IC50 (SERT) [nM] | NET pIC50 (NET) | SERT pIC50 (SERT)
1 | CC(C)OC[C@@H](Oc1cccc(F)c1Cl)[C@H]1CCNC1 [Example 9-11, (S)-3-[(S)-1-(2-Chloro-3-fluorophenoxy)-2-isopropoxyethyl]pyrrolidine] | ≤ 10 | ≤ 10 | – | –
2 | CSC[C@@H](Oc1ccc(Cl)cc1Cl)[C@H]1CCNC1.O=C(O)C(F)(F)F [Example 15-12] | – | – | ≧7.0* | ≧8.0*
3 | CSC[C@H](Oc1cccc(Cl)c1C)[C@H]1CCNC1.O=C(O)C(F)(F)F [Example 15-5] | – | – | ≧8.0* | ≧8.0*
4 | CCOC[C@H](Oc1ccc(Cl)cc1C)[C@H]1CCNC1 [Example 7-22, (S)-3-[(R)-1-(4-Chloro-2-methylphenoxy)-2-ethoxyethyl]pyrrolidine] | ≤ 10 | ≤ 10 | – | –
5 | CCSC[C@H](Oc1cccc(Cl)c1C)[C@H]1CCNC1.O=C(O)C(F)(F)F [Example 17-5] | – | – | ≧8.0* | ≧8.0*
6 | CSC[C@@H](Oc1ccc(F)c(F)c1F)[C@H]1CCNC1.O=C(O)C(F)(F)F [Example 15-14] | – | – | ≧8.0* | ≧7.0*
7 | CCOC[C@H](Oc1ccc(Cl)c(F)c1)[C@H]1CCNC1 [Example 7-26, (S)-3-[(R)-1-(4-Chloro-3-fluorophenoxy)-2-ethoxyethyl]pyrrolidine] | ≤ 10 | ≤ 10 | – | –
8 | CCOC[C@H](Oc1ccc(Cl)cc1)[C@H]1CCNC1 [Example 7-4, (S)-3-[(R)-1-(4-Chlorophenoxy)-2-ethoxyethyl]pyrrolidine] | ≤ 10 | ≤ 10 | – | –
9 | CCOC[C@H](Oc1cccc(Cl)c1Cl)[C@H]1CCNC1 [Example 7-7, (S)-3-[(R)-1-(2,3-Dichlorophenoxy)-2-ethoxyethyl]pyrrolidine] | ≤ 10 | ≤ 10 | – | –
10 | CC(C)OC[C@@H](Oc1c(Cl)cccc1Cl)[C@H]1CCNC1 [Example 9-28, (S)-3-[(S)-1-(2,6-Dichlorophenoxy)-2-isopropoxyethyl]pyrrolidine] | ≤ 10 | ≤ 100 | – | –
11 | CSC[C@H](Oc1cccc(Cl)c1Cl)[C@H]1CCNC1.O=C(O)C(F)(F)F [Example 15-1] | – | – | ≧8.0* | ≧8.0*
12 | CC(C)OC[C@H](Oc1cccc(F)c1Cl)[C@H]1CCNC1 [Example 9-12, (S)-3-[(R)-1-(2-Chloro-3-fluorophenoxy)-2-isopropoxyethyl]pyrrolidine] | ≤ 10 | ≤ 10 | – | –
13 | CC(C)OC[C@@H](Oc1cccc(Cl)c1C(F)(F)F)[C@H]1CCNC1 [Example 9-19, (S)-3-[(S)-1-(3-Chloro-2-trifluoromethylphenoxy)-2-isopropoxyethyl]pyrrolidine] | ≤ 10 | ≤ 10 | – | –
14 | CSC[C@H](Oc1cccc(F)c1Cl)[C@H]1CCNC1.O=C(O)C(F)(F)F [Example 15-3] | – | – | ≧8.0* | ≧8.0*
15 | CCOC[C@H](Oc1cccc(Cl)c1C(F)(F)F)[C@H]1CCNC1 [Example 7-15, (S)-3-[(R)-1-(3-Chloro-2-trifluoromethylphenoxy)-2-ethoxyethyl]pyrrolidine] | ≤ 10 | ≤ 10 | – | –
16 | CSC[C@@H](Oc1c(C)cc(Cl)cc1Cl)[C@H]1CCNC1.O=C(O)C(F)(F)F [Example 15-13] | – | – | ≧7.0* | ≧8.0*

Row | Structure (SMILES) | IC50 (NET) [nM] | IC50 (SERT) [nM] | NET pIC50 (NET) | SERT pIC50 (SERT)
17 | CCSC[C@H](Oc1cccc(F)c1Cl)[C@H]1CCNC1.O=C(O)C(F)(F)F [Example 17-3] | – | – | ≧8.0* | ≧8.0*
18 | CCOC[C@H](Oc1cccc(C(F)(F)F)c1)[C@H]1CCNC1 [Example 7-2, (S)-3-[(R)-2-Ethoxy-1-(3-trifluoromethylphenoxy)ethyl]pyrrolidine] | ≤ 100 | ≤ 100 | – | –
19 | CCOC[C@H](Oc1cccc(Cl)c1C)[C@H]1CCNC1 [Example 7-13, (S)-3-[(R)-1-(3-Chloro-2-methylphenoxy)-2-ethoxyethyl]pyrrolidine] | ≤ 10 | ≤ 10 | – | –
20 | CCOC[C@H](Oc1ccc(Cl)c(Cl)c1F)[C@H]1CCNC1 [Example 7-29, (S)-3-[(R)-1-(3,4-Dichloro-2-fluorophenoxy)-2-ethoxyethyl]pyrrolidine] | ≤ 10 | ≤ 10 | – | –
21 | CCSC[C@H](Oc1cccc(Cl)c1C(F)(F)F)[C@H]1CCNC1 [Example 16, (S)-3-[(R)-1-(3-Chloro-2-trifluoromethylphenoxy)-2-ethylsulfanylethyl]-pyrrolidine] | ≤ 10 | ≤ 10 | – | –
22 | CCOC[C@H](Oc1ccc(F)cc1Cl)[C@H]1CCNC1 [Example 7-18, (S)-3-[(R)-1-(2-Chloro-4-fluorophenoxy)-2-ethoxyethyl]pyrrolidine] | ≤ 10 | ≤ 100 | – | –
23 | CSC[C@H](Oc1cccc(Cl)c1C(F)(F)F)[C@H]1CCNC1.O=C(O)C(F)(F)F [Example 15-7] | – | – | ≧8.0* | ≧8.0*
24 | CCOC[C@@H](Oc1cccc(Cl)c1C)[C@H]1CCNC1 [Example 7-14, (S)-3-[(S)-1-(3-Chloro-2-methylphenoxy)-2-ethoxyethyl]pyrrolidine] | ≤ 10 | ≤ 10 | – | –
25 | CCSC[C@H](Oc1ccc(Cl)cc1C(F)(F)F)[C@H]1CCNC1.O=C(O)C(F)(F)F [Example 17-13] | – | – | ≧8.0* | ≧8.0*
26 | CCOC[C@@H](Oc1cccc(Cl)c1C(F)(F)F)[C@H]1CCNC1 [Example 7-16, (S)-3-[(S)-1-(3-Chloro-2-trifluoromethylphenoxy)-2-ethoxyethyl]pyrrolidine] | ≤ 100 | ≤ 10 | – | –
27 | CCOC[C@H](Oc1c(Cl)cc(F)cc1Cl)[C@H]1CCNC1 [Example 7-31, (S)-3-[(R)-1-(2,6-Dichloro-4-fluorophenoxy)-2-ethoxyethyl]pyrrolidine] | ≤ 10 | ≤ 100 | – | –
28 | CCOC[C@H](Oc1ccc(Cl)c(Cl)c1)[C@H]1CCNC1 [Example 7-24, (S)-3-[(R)-1-(3,4-Dichlorophenoxy)-2-ethoxyethyl]pyrrolidine] | ≤ 100 | ≤ 10 | – | –
29 | CCSC[C@H](Oc1ccc(Cl)c(Cl)c1)[C@H]1CCNC1.O=C(O)C(F)(F)F [Example 17-9] | – | – | ≧8.0* | ≧8.0*
30 | OC[C@@H](Oc1cccc(Cl)c1Cl)[C@@H]1CCNC1 (stereo in doubt) [Example 2-2, (R)-2-(2,3-Dichlorophenoxy)-2-(S)-pyrrolidin-3-yl-ethanol] | ≤ 10 | ≤ 100 | – | –
31 | CCOC[C@H](Oc1ccccc1Cl)[C@H]1CCNC1 [Example 7-1, (S)-3-[(R)-1-(2-Chlorophenoxy)-2-ethoxyethyl]pyrrolidine] | ≤ 10 | ≤ 100 | – | –
32 | CCSC[C@H](Oc1cccc(Cl)c1Cl)[C@H]1CCNC1.O=C(O)C(F)(F)F [Example 17-1] | – | – | ≧8.0* | ≧8.0*

Now from value to compound, other results behind:

Row | IC50 (NET) [nM] | IC50 (SERT) [nM] | Structure (SMILES) | NET pIC50 (NET) | SERT pIC50 (SERT)
33 | ≤ 10 | ≤ 10 | CC(C)SC[C@@H](Oc1cccc(F)c1Cl)[C@H]1CCNC1 [Example 19-4, (S)-3-[(S)-1-(2-Chloro-3-fluorophenoxy)-2-isopropylsulfanylethyl]pyrrolidine] | – | –
34 | ≤ 100 | ≤ 10 | Clc1ccc(OC(COCc2ccccc2)C2CCNC2)c(Cl)c1 [Example 10-3, ((S)-3-[(R)-2-Benzyloxy-1-(2,4-dichlorophenoxy)ethyl]pyrrolidine] | – | –
35 | ≤ 10 | ≤ 100 | Clc1cccc(Cl)c1OC(COCc1ccccc1)C1CCNC1 [Example 10-4, ((S)-3-[(R)-2-Benzyloxy-1-(2,6-dichlorophenoxy)ethyl]pyrrolidine] | – | –
